From PubChem BioAssay AID1963834 (Molecular Pharmacology Branch, DTP, NCI, 2024)
“And” between values parts separate entries of the source, which are not always exact repeats. Equal entries are not always repeated.

Test system: 873145-292-R-J1-PDC complex spheroid viability
Experiment: Anticancer human tumor 873145-292-R-J1-PDC patient-derived renal clear cell carcinoma cell line growth inhibition [POLQ]
Conditions: for viability, T/C: stronger effect = lower value
Description: Multicellular complex tumor spheroid response to Polymerase (POL) inhibitors (novobiocin, ART-558, RP6685) in combination with a variety of drugs and investigational agents in selected tumor cell lines
The POL inhibitors (novobiocin, ART-558, and RP6685) were evaluated both individually and in combination with standard of care and investigational anticancer small molecules within a complex spheroid model of solid tumors. . Complex spheroids include a stromal component modeled by human endothelial cells (HUVEC) and fibroblasts modeled by human mesenchymal stem cells (MSCs). The concentration ranges selected for each drug and investigational agent were based upon clinically achievable concentrations if the clinical Cmax of the agent was known.
Compounds. The drugs and investigational agents: novobiocin (NSC847541), ART-558 (NSC835418), RP-6685 (NSC848927), peposertib (NSC802822), ceralasertib (NSC780249), elimusertib (NSC800525), camonsertib (NSC841442), AZD-1390 (NSC803789), olaparib (NSC753686), talazoparib (NSC767125), rucaparib (NSC756644), sotorasib (NSC818433), MRTX-1133 (NSC836407), SN-38 (NSC673596), topotecan (NSC609699), epotoside (NSC141540), doxorubicin (NSC123127), gemcitabine (NSC613327), 5-fluorouracil (NSC19893), paclitaxel (NSC125973), vemurafenib (NSC761431), MSA-2 (NSC828583), SN-011 (NSC837082), adavosertib (NSC754352), prexasertib (NSC758257), carboplatin (NSC241240) and oxaliplatin (NSC266046), were obtained from the National Cancer Institute (NCI) Developmental Therapeutics Program Chemical Repository (21). The FDA-approved anticancer drug set is available from the Developmental Therapeutics Program at https://dtp.cancer.gov/organization/dscb/obtaining/. […] The stock solutions were prepared in dimethyl sulfoxide (DMSO, Sigma-Aldrich, St. Louis, MO, cat. D2650), except for the platinum compounds which were prepared in saline (Quality Biological, Gaithersburg, MD, cat. 114-055-101), at 800-fold the tested concentration and stored at -70 degrees C prior to their use. All drugs and investigational agents were tested over a range starting from a high concentration at or near the clinical Cmax and decreasing in half-log increments. If the clinical Cmax for an agent had not been determined, the highest concentration tested was 10 microM, except for SN-38, which was tested at a high concentration of 1 microM.
Cell Culture. All cells were maintained in an incubator at 37 degrees C and 5% CO2 with 95% humidity. The PDC lines were cultured according to standard operating procedures established by the NCI PDMR (https://pdmr.cancer.gov). Table 3 of the manuscript, lists the cell lines along with the number of the three cell types plated to form the mct-spheroids and media for tumor cell growth. After thawing, all PDC lines, except 997537-175-T-J1-PDC and 415267-285-R-J2-PDC, were cultured in Matrigel-coated flasks prepared with a working solution of 1X Ham's F-12 nutrient mix, without supplementation (Thermo Fisher Scientific, cat. 11765054), 100 U/mL penicillin-streptomycin (Thermo Fisher Scientific, cat. 15140122), and 2.5% Matrigel (Corning Inc., Corning, NY, cat. 354248) for the first three passages. The two PDC lines 997537-175-T-J1-PDC and 415267-285-R-J2-PDC were cultured on uncoated flasks. The 857933-349-R-J2-PDC line was cultured in 6C/Colon 1B media containing advanced DMEM/F-12 (Thermo Fisher Scientific, cat. 12634028), 10 mM HEPES (Thermo Fisher Scientific, cat. 15630080), 1X GlutaMAX supplement (Thermo Fisher Scientific, cat. 35050061), 0.1 mg/mL primocin (InvivoGen, San Diego, CA, cat. ant-pm-2), 10% defined fetal bovine serum, heat inactivated (HyClone Laboratories Inc., Logan, UT, cat. SH30070.03HI), 50% L-WRN conditioned media (ATCC, cat. CRL-3276), 1.25 mM N-Acetyl-L-cysteine (Sigma-Aldrich, cat. A9165), 10 mM nicotinamide (Sigma-Aldrich, cat. N0636), 1X B-27 supplement (Thermo Fisher Scientific, cat. 17504044), 1X N-2 supplement (Thermo Fisher Scientific, cat. […]
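Also: spheroids exposed to compounds for 7 days before viability readout.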
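For viability, T/C in this document: luminescence signal used as surrogate for viable cell content; 100% = DMSO vehicle control viability.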

## CCc1cc2c(N3CCc4c(cc(Cn5ccnc5)cc4-c4cn(C)nc4C(F)(F)F)C3=O)cc(C)nc2c(OC)n1
Compound 0.0316 µM
  viability, T/C: 95.3% and 101% and 104%
Compound 0.1 µM
  viability, T/C: 96.6% and 94.7% and 102%
Compound 0.316 µM
  viability, T/C: 88.5% and 93.9% and 90.2%
Compound 1 µM
  viability, T/C: 94.2% and 85.1% and 80.9%
Compound 3.16 µM
  viability, T/C: 85.1% and 79.1% and 86.5%
Compound 10 µM
  viability, T/C: 80.2% and 85.1% and 81%
Curve of compound
  IC50: > 10000 nM

## CCc1c2c(nc3ccc(O)cc13)-c1cc3c(c(=O)n1C2)COC(=O)[C@]3(O)CC + Cc1cccc(N(C)C(=O)C2C(O)CCN2c2nc(C)cc(C(F)(F)F)c2C#N)c1
Curve of first compound, second compound 0.0316 µM
  IC50: 76.2 nM
Curve of first compound, second compound 0.1 µM
  IC50: 71.7 nM
Curve of first compound, second compound 0.316 µM
  IC50: 68.6 nM
Curve of first compound, second compound 1 µM
  IC50: 64.9 nM
Curve of first compound, second compound 3.16 µM
  IC50: 35.5 nM
Curve of first compound, second compound 10 µM
  IC50: 74.4 nM
Second compound 0.0316 µM, first compound 0.00316 µM
  viability, T/C: 98.7%
Second compound 0.0316 µM, first compound 0.01 µM
  viability, T/C: 80.6%
Second compound 0.0316 µM, first compound 0.0316 µM
  viability, T/C: 57.2%
Second compound 0.0316 µM, first compound 0.1 µM
  viability, T/C: 46.8%
Second compound 0.0316 µM, first compound 0.316 µM
  viability, T/C: 40%
Second compound 0.0316 µM, first compound 1 µM
  viability, T/C: 28.6%
Second compound 0.1 µM, first compound 0.00316 µM
  viability, T/C: 103%
Second compound 0.1 µM, first compound 0.01 µM
  viability, T/C: 81.6%
Second compound 0.1 µM, first compound 0.0316 µM
  viability, T/C: 54.2%
Second compound 0.1 µM, first compound 0.1 µM
  viability, T/C: 46.7%
Second compound 0.1 µM, first compound 0.316 µM
  viability, T/C: 41.9%
Second compound 0.1 µM, first compound 1 µM
  viability, T/C: 28.2%
Second compound 0.316 µM, first compound 0.00316 µM
  viability, T/C: 107%
Second compound 0.316 µM, first compound 0.01 µM
  viability, T/C: 91.9%
Second compound 0.316 µM, first compound 0.0316 µM
  viability, T/C: 57.9%
Second compound 0.316 µM, first compound 0.1 µM
  viability, T/C: 45.3%
Second compound 0.316 µM, first compound 0.316 µM
  viability, T/C: 39.4%
Second compound 0.316 µM, first compound 1 µM
  viability, T/C: 26.1%
Second compound 1 µM, first compound 0.00316 µM
  viability, T/C: 97.2%
Second compound 1 µM, first compound 0.01 µM
  viability, T/C: 79.8%
Second compound 1 µM, first compound 0.0316 µM
  viability, T/C: 64.2%
Second compound 1 µM, first compound 0.1 µM
  viability, T/C: 39.2%
Second compound 1 µM, first compound 0.316 µM
  viability, T/C: 37.9%
Second compound 1 µM, first compound 1 µM
  viability, T/C: 29.4%
Second compound 3.16 µM, first compound 0.00316 µM
  viability, T/C: 95%
Second compound 3.16 µM, first compound 0.01 µM
  viability, T/C: 69.8%
Second compound 3.16 µM, first compound 0.0316 µM
  viability, T/C: 54.1%
Second compound 3.16 µM, first compound 0.1 µM
  viability, T/C: 36.9%
Second compound 3.16 µM, first compound 0.316 µM
  viability, T/C: 33.7%
Second compound 3.16 µM, first compound 1 µM
  viability, T/C: 33.2%
Second compound 10 µM, first compound 0.00316 µM
  viability, T/C: 87.8%
Second compound 10 µM, first compound 0.01 µM
  viability, T/C: 65.6%
Second compound 10 µM, first compound 0.0316 µM
  viability, T/C: 56.4%
Second compound 10 µM, first compound 0.1 µM
  viability, T/C: 47.5%
Second compound 10 µM, first compound 0.316 µM
  viability, T/C: 47.6%
Second compound 10 µM, first compound 1 µM
  viability, T/C: 31.7%

## O=C(Nc1ccc(O)c(NS(=O)(=O)c2ccc(F)cc2)c1)c1ccc(-c2ccccc2)cc1
Compound 0.0316 µM
  viability, T/C: 115% and 109% and 103%
Compound 0.1 µM
  viability, T/C: 97.8% and 105% and 91.7%
Compound 0.316 µM
  viability, T/C: 113% and 107% and 99.3%
Compound 1 µM
  viability, T/C: 105% and 99.7% and 101%
Compound 3.16 µM
  viability, T/C: 105% (2×) and 108%
Compound 10 µM
  viability, T/C: 104% and 99.2% and 98.4%
Curve of compound
  IC50: > 10000 nM

## CCc1c2c(nc3ccc(O)cc13)-c1cc3c(c(=O)n1C2)COC(=O)[C@]3(O)CC
Compound 0.00316 µM
  viability, T/C: 94.8% and 105% and 94%
Compound 0.01 µM
  viability, T/C: 77.7% and 88.3% and 80.5%
Compound 0.0316 µM
  viability, T/C: 50.6% and 60% and 54.1%
Compound 0.1 µM
  viability, T/C: 49.2% and 52.5% and 41.1%
Compound 0.316 µM
  viability, T/C: 37.8% and 45.3% and 34.1%
Compound 1 µM
  viability, T/C: 30.3% and 37.3% and 29.6%
Curve of compound
  IC50: 62.3 nM and 99.3 nM and 48.2 nM
